PubChem BioAssay (NCI)
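How tested: cells in 96-well plates exposed to compound for 48 hours at five concentrations. GI50 marks 50% less growth. At the TGI there is no net growth.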

How the values were obtained:
Assay in all cases: NCI anticancer screen, dose series, 48 h
[1] = test system: HCT-15 colon
[2] = test system: SK-MEL-5 melanoma
[3] = test system: CAKI-1 renal
[4] = test system: NCI-H23 lung
[5] = test system: MDA-MB-231 breast
[6] = test system: OVCAR-8 ovarian
[7] = test system: SK-MEL-2 melanoma
[8] = test system: UO-31 renal
[9] = test system: BT-549 breast
[10] = test system: HS 578T breast
[11] = test system: MALME-3M melanoma
[12] = test system: HCT-116 colon
[13] = test system: SNB-19 CNS
[14] = test system: HL-60(TB) leukemia
[15] = test system: K-562 leukemia
[16] = test system: A549 NSCLC
[17] = test system: NCI-H226 lung
[18] = test system: SF-295 CNS
[19] = test system: HOP-92 NSCLC
[20] = test system: OVCAR-5 ovarian
[21] = test system: PC-3 prostate
[22] = test system: CCRF-CEM leukemia
[23] = test system: IGROV1 ovarian
[24] = test system: LOX IMVI melanoma
[25] = test system: RXF 393 renal
[26] = test system: SF-539 CNS
[27] = test system: EKVX NSCLC
[28] = test system: KM12 colon
[29] = test system: OVCAR-4 ovarian
[30] = test system: ACHN renal
[31] = test system: T-47D breast
[32] = test system: NCI-H460 lung
[33] = test system: TK-10 renal
[34] = test system: SK-OV-3 ovarian
[35] = test system: UACC-62 melanoma
[36] = test system: DU-145 prostate
[37] = test system: HCC-2998 colon
[38] = test system: MOLT-4 leukemia
[39] = test system: 786-0 renal
[40] = test system: NCI/ADR-RES ovarian
[41] = test system: M14 melanoma
[42] = test system: OVCAR-3 ovarian
[43] = test system: UACC-257 melanoma
[44] = test system: COLO 205 colon
[45] = test system: SNB-75 CNS
[46] = test system: RPMI-8226 leukemia
[47] = test system: SN12C renal
[48] = test system: MCF7 breast
[49] = test system: SK-MEL-28 melanoma
[50] = test system: HOP-62 NSCLC
[51] = test system: HT29 colon
[52] = test system: SW-620 colon
[53] = test system: SF-268 CNS
[54] = test system: NCI-H522 lung
[55] = test system: MDA-MB-435
[56] = test system: U251 CNS
[57] = test system: A498 renal

**Q.** With `CCC(=O)Sc1ccccc1C(=O)Nc1ccc(Cl)cc1` as the compound, how does the GI50 [1] read?
**A.** 7.79 µM

**Q.** And the TGI [1]?
**A.** > 100 µM

**Q.** What about the GI50 [2] of the same compound?
**A.** 4.22 µM

**Q.** What about the TGI [2] of the same compound?
**A.** 17.4 µM

**Q.** And the GI50 [3]?
**A.** 10.2 µM

**Q.** What about the TGI [3] of the same compound?
**A.** 38.4 µM

**Q.** And the GI50 [4]?
**A.** 6.43 µM

**Q.** And the TGI [4]?
**A.** 39.2 µM

**Q.** And the GI50 [5]?
**A.** 11.2 µM

**Q.** What about the TGI [5] of the same compound?
**A.** 45.7 µM

**Q.** What about the GI50 [6] of the same compound?
**A.** 17.4 µM

**Q.** And the TGI [6]?
**A.** > 100 µM

**Q.** What about the GI50 [7] of the same compound?
**A.** 25.7 µM

**Q.** What about the TGI [7] of the same compound?
**A.** > 100 µM

**Q.** And the GI50 [8]?
**A.** 6.53 µM

**Q.** And the TGI [8]?
**A.** > 100 µM

**Q.** And the GI50 [9]?
**A.** 3.21 µM

**Q.** And the TGI [9]?
**A.** 9.89 µM

**Q.** And the GI50 [10]?
**A.** 15.9 µM

**Q.** And the TGI [10]?
**A.** 66.4 µM

**Q.** And the GI50 [11]?
**A.** 8.76 µM

**Q.** What about the TGI [11] of the same compound?
**A.** 51.2 µM

**Q.** And the GI50 [12]?
**A.** 3.58 µM

**Q.** What about the TGI [12] of the same compound?
**A.** 13.1 µM

**Q.** What about the GI50 [13] of the same compound?
**A.** 16.6 µM

**Q.** What about the TGI [13] of the same compound?
**A.** 68.8 µM

**Q.** What about the GI50 [14] of the same compound?
**A.** 3.65 µM

**Q.** What about the TGI [14] of the same compound?
**A.** 19.8 µM

**Q.** And the GI50 [15]?
**A.** 3.83 µM

**Q.** And the TGI [15]?
**A.** > 100 µM

**Q.** And the GI50 [16]?
**A.** 11.7 µM

**Q.** What about the TGI [16] of the same compound?
**A.** > 100 µM

**Q.** What about the GI50 [17] of the same compound?
**A.** 10.4 µM

**Q.** And the TGI [17]?
**A.** 54.8 µM

**Q.** What about the GI50 [18] of the same compound?
**A.** 5.08 µM

**Q.** And the TGI [18]?
**A.** 25.4 µM

**Q.** What about the GI50 [19] of the same compound?
**A.** 2.52 µM

**Q.** What about the TGI [19] of the same compound?
**A.** 9.67 µM

**Q.** What about the GI50 [20] of the same compound?
**A.** 15.9 µM

**Q.** And the TGI [20]?
**A.** 33.2 µM

**Q.** What about the GI50 [21] of the same compound?
**A.** 10.8 µM

**Q.** And the TGI [21]?
**A.** 56.3 µM

**Q.** And the GI50 [22]?
**A.** 4.22 µM

**Q.** What about the TGI [22] of the same compound?
**A.** > 100 µM

**Q.** And the GI50 [23]?
**A.** 13.7 µM

**Q.** And the TGI [23]?
**A.** > 100 µM

**Q.** What about the GI50 [24] of the same compound?
**A.** 5.91 µM

**Q.** What about the TGI [24] of the same compound?
**A.** 24.4 µM

**Q.** What about the GI50 [25] of the same compound?
**A.** 28.7 µM

**Q.** What about the TGI [25] of the same compound?
**A.** > 100 µM

**Q.** And the GI50 [26]?
**A.** 11.2 µM

**Q.** And the TGI [26]?
**A.** 30.5 µM

**Q.** What about the GI50 [27] of the same compound?
**A.** 7.16 µM

**Q.** And the TGI [27]?
**A.** 75.2 µM

**Q.** What about the GI50 [28] of the same compound?
**A.** 6.69 µM

**Q.** And the TGI [28]?
**A.** 36.8 µM

**Q.** What about the GI50 [29] of the same compound?
**A.** 13.1 µM

**Q.** And the TGI [29]?
**A.** > 100 µM

**Q.** What about the GI50 [30] of the same compound?
**A.** 16.5 µM

**Q.** And the TGI [30]?
**A.** 71.6 µM

**Q.** And the GI50 [31]?
**A.** 8.96 µM

**Q.** And the TGI [31]?
**A.** 38.6 µM

**Q.** What about the GI50 [32] of the same compound?
**A.** 4.84 µM

**Q.** And the TGI [32]?
**A.** 36 µM

**Q.** What about the GI50 [33] of the same compound?
**A.** 22.9 µM

**Q.** And the TGI [33]?
**A.** 76.9 µM

**Q.** And the GI50 [34]?
**A.** 18.7 µM

**Q.** What about the TGI [34] of the same compound?
**A.** 53.9 µM

**Q.** What about the GI50 [35] of the same compound?
**A.** 4.38 µM

**Q.** What about the TGI [35] of the same compound?
**A.** 24.3 µM

**Q.** What about the GI50 [36] of the same compound?
**A.** 22.1 µM

**Q.** What about the TGI [36] of the same compound?
**A.** 74.3 µM

**Q.** And the GI50 [37]?
**A.** 18.5 µM

**Q.** And the TGI [37]?
**A.** 47 µM

**Q.** What about the GI50 [38] of the same compound?
**A.** 4.67 µM

**Q.** And the TGI [38]?
**A.** 92.6 µM

**Q.** And the GI50 [39]?
**A.** 15 µM

**Q.** And the TGI [39]?
**A.** 41.8 µM

**Q.** And the GI50 [40]?
**A.** 6.45 µM

**Q.** What about the TGI [40] of the same compound?
**A.** 38 µM

**Q.** What about the GI50 [41] of the same compound?
**A.** 6.42 µM

**Q.** What about the TGI [41] of the same compound?
**A.** 43.9 µM

**Q.** What about the GI50 [42] of the same compound?
**A.** 6.34 µM

**Q.** What about the TGI [42] of the same compound?
**A.** 26.1 µM

**Q.** What about the GI50 [43] of the same compound?
**A.** 31.7 µM

**Q.** What about the TGI [43] of the same compound?
**A.** > 100 µM

**Q.** And the GI50 [44]?
**A.** 13.6 µM

**Q.** What about the TGI [44] of the same compound?
**A.** 32.1 µM

**Q.** And the GI50 [45]?
**A.** 19.2 µM

**Q.** And the TGI [45]?
**A.** 98.2 µM

**Q.** What about the GI50 [46] of the same compound?
**A.** 4.32 µM

**Q.** And the TGI [46]?
**A.** 29.3 µM

**Q.** What about the GI50 [47] of the same compound?
**A.** 4.26 µM

**Q.** And the TGI [47]?
**A.** 41.8 µM

**Q.** What about the GI50 [48] of the same compound?
**A.** 3.86 µM

**Q.** And the TGI [48]?
**A.** 36.2 µM

**Q.** And the GI50 [49]?
**A.** 9.33 µM

**Q.** And the TGI [49]?
**A.** 57.7 µM

**Q.** What about the GI50 [50] of the same compound?
**A.** 12.5 µM

**Q.** What about the TGI [50] of the same compound?
**A.** 34.2 µM

**Q.** What about the GI50 [51] of the same compound?
**A.** 7.09 µM

**Q.** What about the TGI [51] of the same compound?
**A.** 44.5 µM

**Q.** What about the GI50 [52] of the same compound?
**A.** 3.63 µM

**Q.** What about the TGI [52] of the same compound?
**A.** 25.8 µM

**Q.** What about the GI50 [53] of the same compound?
**A.** 9.67 µM

**Q.** And the TGI [53]?
**A.** 52.9 µM

**Q.** And the GI50 [54]?
**A.** 6.21 µM

**Q.** What about the TGI [54] of the same compound?
**A.** 27.1 µM

**Q.** And the GI50 [55]?
**A.** 6.92 µM

**Q.** What about the TGI [55] of the same compound?
**A.** 39.9 µM

**Q.** What about the GI50 [56] of the same compound?
**A.** 5.73 µM

**Q.** And the TGI [56]?
**A.** 32.3 µM

**Q.** And the GI50 [57]?
**A.** 9.19 µM

**Q.** And the TGI [57]?
**A.** 38.5 µM
